Results: US10155021B2, “Antimicrobial 4-oxoquinolizines” (Emergent Product Development Gaithersburg Inc., priority 2011, dated 2018)
In brackets after ≈: the same amount, converted by molar mass. Like-named read-outs stand apart in the source and are kept apart here.

Columns and labels:
[1] = test system: resistant strains of A. baumannii and one strain of Acinetobacter sp.; test: MIC without and with sub-inhibitory polymyxin B, whole panel / MIC ranges (Example 4; also strains not listed separately); assay type: cell-based; conditions: for MIC: Acinetobacter baumannii
[2] = test system: P. aeruginosa 1388-3-02; test: MIC, panel of quinolone-resistant strains (CLSI); assay type: cell-based; conditions: Pseudomonas aeruginosa, 1388302; CIP R, POL R
[3] = test system: A. baumannii A401; test: Preliminary MBC without and with sub-inhibitory polymyxin B (Example 4); assay type: cell-based, Acinetobacter baumannii; conditions: Acinetobacter baumannii, A401, A baumannii A 401, without polymyxin B, preliminary MBC, read-out: MBC without PB
[4] = test system: A. baumannii A489; test: as above; assay type: cell-based, Acinetobacter baumannii; conditions: Acinetobacter baumannii, A489, A. baumannii A489, without polymyxin B, 1st experiment, read-out: MBC without PB
[5] = test system: A. baumannii A473; test: MIC without and with sub-inhibitory polymyxin B (Example 4); assay type: cell-based, Acinetobacter baumannii; conditions: Acinetobacter baumannii, A473, A. baumannii A473, without polymyxin B, read-out: MIC without PB
[6] = test system: Pseudomonas ssp PER-1; test: MIC, panel of quinolone-resistant strains (CLSI); assay type: cell-based, Pseudomonas spp; conditions: PER1, CIP R, ESBL
[7] = test system: Acinetobacter sp. (H064200250); test: Preliminary MBC without and with sub-inhibitory polymyxin B (Example 4); assay type: cell-based; conditions: Acinetobacter, without polymyxin B, preliminary MBC, read-out: MBC without PB
In short: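 Read-out: the minimum concentration at which colonies were reduced by ca. 90% relative to positive control, usually seen as isolated colonies or a clear plate. Plates had been kept 18-20 hours at 37° C beforehand.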

[8] = test system: Klebsiella ssp KPC-3; test: MIC, panel of quinolone-resistant strains (CLSI); assay type: cell-based, Klebsiella spp; conditions: KPC3, CIP R, ESBL
[9] = test system: A. baumannii J2; test: MIC without and with sub-inhibitory polymyxin B (Example 4); assay type: cell-based, Acinetobacter baumannii; conditions: Acinetobacter baumannii, J2, A. baumannii J2, without polymyxin B, read-out: MIC without PB
[10] = test system: Acinetobacter sp. (H064200250); test: as above; assay type: cell-based; conditions: Acinetobacter, without polymyxin B
[11] = test system: A. baumannii A401; test: as above; assay type: cell-based, Acinetobacter baumannii; conditions: Acinetobacter baumannii, A401, A baumannii A 401, without polymyxin B, read-out: MIC without PB
[12] = test system: A. baumannii ATCC 19606; test: as above; assay type: cell-based, Acinetobacter baumannii; conditions: Acinetobacter baumannii
[13] = test system: A. baumannii A473; test: Preliminary MBC without and with sub-inhibitory polymyxin B (Example 4); assay type: cell-based, Acinetobacter baumannii; conditions: Acinetobacter baumannii, A473, A. baumannii A473, without polymyxin B, read-out: MBC without PB
[14] = test system: Acinetobacter spp. H064200250; test: MIC determination for Acinetobacter strains (Example 3); assay type: cell-based, Acinetobacter sp.; conditions: LEV R, CIP R, MRP R, IMP I
[15] = test system: A. baumannii A 401; test: as above; assay type: cell-based; conditions: A401, LEV R, CIP R, AMK R, TET R
[16] = test system: A. baumannii A472; test: as above; assay type: cell-based; conditions: LEV R, CIP R, MRP I, IMP I, AMK R, TET R
[17] = test system: A. baumannii A472; test: MIC without and with sub-inhibitory polymyxin B (Example 4); assay type: cell-based, Acinetobacter baumannii; conditions: for MIC: Acinetobacter baumannii, A472, A. baumannii A472, without polymyxin B, read-out: MIC without PB
[18] = test system: P. aeruginosa 143-3-03; test: MIC, panel of quinolone-resistant strains (CLSI); assay type: cell-based; conditions: Pseudomonas aeruginosa, 143303; CIP I, POL R
[19] = test system: A. baumannii A472; test: Preliminary MBC without and with sub-inhibitory polymyxin B (Example 4); assay type: cell-based, Acinetobacter baumannii; conditions: Acinetobacter baumannii, A472, A. baumannii A472, without polymyxin B, read-out: MBC without PB
[20] = test system: E. coli CTX-M-15; test: MIC, panel of quinolone-resistant strains (CLSI); assay type: cell-based; conditions: Escherichia coli, CTXM15; CIP R, ESBL
[21] = test system: A. baumannii A390; test: Preliminary MBC without and with sub-inhibitory polymyxin B (Example 4); assay type: cell-based, Acinetobacter baumannii; conditions: Acinetobacter baumannii, A390, A. baumannii A390; without polymyxin B; preliminary MBC; 1st experiment; read-out: MBC without PB
[22] = test system: E. coli 2906; test: MIC, panel of quinolone-resistant strains (CLSI); assay type: cell-based; conditions: Escherichia coli, CIP R
[23] = test system: A. baumannii A489; test: MIC without and with sub-inhibitory polymyxin B (Example 4); assay type: cell-based, Acinetobacter baumannii; conditions: Acinetobacter baumannii, A489, A. baumannii A489, without polymyxin B, read-out: MIC without PB
[24] = test system: A. baumannii A329; test: Preliminary MBC without and with sub-inhibitory polymyxin B (Example 4); assay type: cell-based, Acinetobacter baumannii; conditions: Acinetobacter baumannii, A329, A. baumannii A329, without polymyxin B, read-out: MBC without PB
[25] = test system: A. baumannii A329; test: MIC determination for Acinetobacter strains (Example 3); assay type: cell-based; conditions: LEV R, CIP R, MRP R, IMP R, AMK R, TET R
[26] = A. baumannii A14, without polymyxin B, 1st experiment, read-out: MIC without PB
[27] = read-out: MIC range without PB 01-10-2008 n = 8, without polymyxin B, 1st experiment, 8 strains
[28] = without polymyxin B, 2nd experiment, 11 strains, read-out: MIC range without PB 14-10-2008 n = 11
[29] = Acinetobacter spp. H064200250 (OXA51), 2nd experiment
[30] = Acinetobacter spp. H064200250, 1st experiment
[31] = Acinetobacter spp. H064200250 (OXA51), 2nd experiment, visual reading, read-out: MIC without PB
[32] = Acinetobacter spp. H064200250, 1st experiment, read-out: MIC without PB
[33] = ATCC19606, A. baumannii ATCC 19606, without polymyxin B, 2nd experiment, visual reading, read-out: MIC without PB

Structure (SMILES): Cc1c(-c2ccc(N)cc2)c(F)cn2c(=O)c(C(=O)O)cc(C3CC3)c12 [Compound 7, 8-(4-amino-phenyl)-1-cyclopropyl-7-fluoro-9-methyl-4-oxo-quinolizine-3-carboxylic acid]
- MIC [1, 26]: 32 µg/mL (≈ 90.8 µM)
- MIC [1, 27]: 2 to 32 µg/mL (≈ 5.68 to 90.8 µM)
- MIC [1, 28]: 2 to 16 µg/mL (≈ 5.68 to 45.4 µM)
- MIC [2]: 16 µg/mL (≈ 45.4 µM)
- MBC ([3]; 2nd experiment): 8 µg/mL (≈ 22.7 µM)
- MBC ([3]; 1st experiment): 4 µg/mL (≈ 11.4 µM)
- MBC [4]: 4 µg/mL (≈ 11.4 µM)
- MIC ([5]; 1st experiment): 4 µg/mL (≈ 11.4 µM)
- MIC ([5]; 2nd experiment, visual reading): 4 µg/mL (≈ 11.4 µM)
- MIC [6]: 16 µg/mL (≈ 45.4 µM)
- MBC [7, 29]: 8 µg/mL (≈ 22.7 µM)
- MBC [7, 30]: 4 µg/mL (≈ 11.4 µM)
- MIC [8]: 16 µg/mL (≈ 45.4 µM)
- MIC ([9]; 2nd experiment, visual reading): 4 µg/mL (≈ 11.4 µM)
- MIC ([10]; Acinetobacter spp. H064200250 (OXA51), 2nd experiment, MIC read with alamar blue, read-out: MIC without PB, read with alamar blue): 8 µg/mL (≈ 22.7 µM)
- MIC [10, 31]: 16 µg/mL (≈ 45.4 µM)
- MIC [10, 32]: 8 µg/mL (≈ 22.7 µM)
- MIC ([11]; 1st experiment): 4 µg/mL (≈ 11.4 µM)
- MIC ([11]; 2nd experiment, visual reading): 8 µg/mL (≈ 22.7 µM)
- MIC [12, 33]: 0.25 µg/mL (≈ 0.709 µM)
- MBC ([13]; 1st experiment): 4 µg/mL (≈ 11.4 µM)
- MBC ([13]; 2nd experiment): 4 µg/mL (≈ 11.4 µM)
- MIC [14]: 8 µg/mL (≈ 22.7 µM)
- MIC [15]: 4 µg/mL (≈ 11.4 µM)
- MIC [16]: 4 µg/mL (≈ 11.4 µM)
- MIC ratio without/with polymyxin B ([17]; A. baumannii A472, ratio MIC without PB to MIC + PB, PB […], 2nd experiment): ≥ 256 µg/mL
- MIC ([17]; 1st experiment): 4 µg/mL (≈ 11.4 µM)
- MIC ([17]; 2nd experiment, visual reading): 8 µg/mL (≈ 22.7 µM)
- MIC [18]: 4 µg/mL (≈ 11.4 µM)
- MBC ([19]; 1st experiment): 4 µg/mL (≈ 11.4 µM)
- MBC ([19]; 2nd experiment): 8 µg/mL (≈ 22.7 µM)
- MIC [20]: 32 µg/mL (≈ 90.8 µM)
- MBC [21]: 4 µg/mL (≈ 11.4 µM)
- MIC [22]: 32 µg/mL (≈ 90.8 µM)
- MIC ([23]; 1st experiment): 8 µg/mL (≈ 22.7 µM)
- MIC ([23]; 2nd experiment, visual reading): 8 µg/mL (≈ 22.7 µM)

Structure (SMILES): C[C@H]1COc2c(N3CCN(C)CC3)c(F)cc3c(=O)c(C(=O)O)cn1c23 [Levofloxacin, reference compound]
- MBC ([24]; 1st experiment): 32 µg/mL (≈ 88.6 µM)
- MBC ([24]; 2nd experiment): 32 µg/mL (≈ 88.6 µM)
- fold greater activity (fold lower MIC) in presence of polymyxin B compared to without polymyxin B [1]: not significantly affected
- MIC [1, 26]: 32 µg/mL (≈ 88.6 µM)
- MIC ([1]; A. baumannii A14, without polymyxin B, 2nd experiment, visual reading, read-out: MIC without PB): 32 µg/mL (≈ 88.6 µM)
- MIC ([1]; NCTC13301, A. baumannii NCTC 13301, without polymyxin B, 1st experiment, read-out: MIC without PB): 32 µg/mL (≈ 88.6 µM)
- MIC ([1]; NCTC13301, A. baumannii NCTC 13301, without polymyxin B, 2nd experiment, visual reading, read-out: MIC without PB): 32 µg/mL (≈ 88.6 µM)
- MIC [1, 27]: 8 to 32 µg/mL (≈ 22.1 to 88.6 µM)
- MIC [1, 28]: 4 to 32 µg/mL (≈ 11.1 to 88.6 µM)
- MIC [2]: 32 µg/mL (≈ 88.6 µM)
- MBC [4]: 32 µg/mL (≈ 88.6 µM)
- MIC [6]: 32 µg/mL (≈ 88.6 µM)
- MBC [7, 29]: 16 µg/mL (≈ 44.3 µM)
- MBC [7, 30]: 16 µg/mL (≈ 44.3 µM)
- MIC [8]: > 128 µg/mL
- MIC ([9]; 1st experiment): 32 µg/mL (≈ 88.6 µM)
- MIC ([9]; 2nd experiment, visual reading): 32 µg/mL (≈ 88.6 µM)
- MIC [10, 31]: 16 µg/mL (≈ 44.3 µM)
- MIC [10, 32]: 16 µg/mL (≈ 44.3 µM)
- MIC ([12]; ATCC19606, A. baumannii ATCC 19606, without polymyxin B, 1st experiment, read-out: MIC without PB): 1 µg/mL (≈ 2.77 µM)
- MIC [12, 33]: 1 µg/mL (≈ 2.77 µM)
- MIC ([12]; ATCC19606, read-out: MIC +0.06 μg/ml PB, read with alamar blue, A. baumannii ATCC 19606, +0.06 μg/ml polymyxin B, 2nd experiment, MIC read with alamar blue): 0.5 µg/mL
- MIC [14]: 16 µg/mL (≈ 44.3 µM)
- MIC [25]: 32 µg/mL (≈ 88.6 µM)
- MIC [18]: 8 µg/mL (≈ 22.1 µM)
- MIC [20]: 16 µg/mL (≈ 44.3 µM)
- MIC [22]: 32 µg/mL (≈ 88.6 µM)
- MIC ([23]; 2nd experiment, visual reading): 32 µg/mL (≈ 88.6 µM)
